Source: PMC10776687 (Nature Communications, 2024)

Columns and labels:
Assay type in all cases: cell-based
[1] = target: T1, human serotonin transporter (SERT) (Homo sapiens, UniProt P31645); assay: [3H]5HT uptake kinetics (Km/Vmax) in HEK293 cells at the compound's IC50, n = […]
T1 construct: gene SLC6A4; human WT SERT, N-terminal eYFP fusion, stably expressed in HEK293 cells

[2] = target: T1, human serotonin transporter (SERT); assay: [3H]5HT uptake inhibition in HEK293 cells; whole-cell patch clamp (partial substrate, kon/koff); efflux
[3] = target: T1, human serotonin transporter (SERT); assay: [3H]5HT uptake inhibition in HEK293 cells; whole-cell patch clamp (almost pure inhibitor)
[4] = target: T1, human serotonin transporter (SERT); assay: [3H]5HT uptake inhibition in HEK293 cells; whole-cell patch clamp (partial substrate, kon/koff)

T1 sequence (P31645 whole entry, the tested form may be a part): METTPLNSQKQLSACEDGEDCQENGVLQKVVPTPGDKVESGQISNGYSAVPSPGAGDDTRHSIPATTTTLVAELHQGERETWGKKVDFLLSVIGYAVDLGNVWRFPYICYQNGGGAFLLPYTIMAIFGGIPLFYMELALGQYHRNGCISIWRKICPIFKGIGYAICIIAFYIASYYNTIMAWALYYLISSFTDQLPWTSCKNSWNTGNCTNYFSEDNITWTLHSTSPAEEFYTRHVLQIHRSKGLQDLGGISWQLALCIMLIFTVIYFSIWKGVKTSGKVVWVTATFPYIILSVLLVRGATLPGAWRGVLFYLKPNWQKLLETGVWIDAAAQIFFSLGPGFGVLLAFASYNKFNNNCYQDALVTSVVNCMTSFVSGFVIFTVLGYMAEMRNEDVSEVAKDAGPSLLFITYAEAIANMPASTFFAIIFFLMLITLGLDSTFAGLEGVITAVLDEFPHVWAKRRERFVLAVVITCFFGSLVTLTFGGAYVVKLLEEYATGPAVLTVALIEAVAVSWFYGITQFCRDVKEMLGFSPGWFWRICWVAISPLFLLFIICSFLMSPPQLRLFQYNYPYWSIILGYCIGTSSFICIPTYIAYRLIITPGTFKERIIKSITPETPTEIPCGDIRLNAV

In the case of `COC(=O)[C@H]1[C@@H](OC(=O)c2ccccc2)C[C@@H]2CC[C@H]1N2C` [COC, cocaine], the IC50 [1] is reported as 4000 nM.

`NCCCc1c[nH]c2ccc(O)cc12` [P-5HT, propyl (P)-5HT] was tested, and the IC50 [2] was 590 nM.

Work on `CC[C@H]1C[C@@H]2C[C@H]3c4[nH]c5ccc(OC)cc5c4CCN(C2)[C@@H]13` [IBO, ibogaine] yielded an IC50 [1] of 24000 nM.

For `NCc1c[nH]c2ccc(O)cc12` [M-5HT], the IC50 [3] was 79300 nM.

Work on `NCCCCc1c[nH]c2ccc(O)cc12` [B-5HT, butyl (B)-5HT] yielded an IC50 [4] of 270 nM.
